Results taken from US20230295152A1 (SENDA BIOSCIENCES, INC., priority 2019, published 2023).

target: T1, AHR (Homo sapiens, UniProt P35869); assay: DRE-Luciferase Reporter Assay, HepG2 AhR-Lucia reporter cells; format: cell-based; conditions: with AHR activating ligand at EC50, read-out: HepG2-Luc IC50
T1 construct: other cell line with a DRE-luciferase reporter stably transfected; endogenous in cells; host or cells: HepG2 AhR-Lucia reporter cells
T1 sequence (P35869 11-848): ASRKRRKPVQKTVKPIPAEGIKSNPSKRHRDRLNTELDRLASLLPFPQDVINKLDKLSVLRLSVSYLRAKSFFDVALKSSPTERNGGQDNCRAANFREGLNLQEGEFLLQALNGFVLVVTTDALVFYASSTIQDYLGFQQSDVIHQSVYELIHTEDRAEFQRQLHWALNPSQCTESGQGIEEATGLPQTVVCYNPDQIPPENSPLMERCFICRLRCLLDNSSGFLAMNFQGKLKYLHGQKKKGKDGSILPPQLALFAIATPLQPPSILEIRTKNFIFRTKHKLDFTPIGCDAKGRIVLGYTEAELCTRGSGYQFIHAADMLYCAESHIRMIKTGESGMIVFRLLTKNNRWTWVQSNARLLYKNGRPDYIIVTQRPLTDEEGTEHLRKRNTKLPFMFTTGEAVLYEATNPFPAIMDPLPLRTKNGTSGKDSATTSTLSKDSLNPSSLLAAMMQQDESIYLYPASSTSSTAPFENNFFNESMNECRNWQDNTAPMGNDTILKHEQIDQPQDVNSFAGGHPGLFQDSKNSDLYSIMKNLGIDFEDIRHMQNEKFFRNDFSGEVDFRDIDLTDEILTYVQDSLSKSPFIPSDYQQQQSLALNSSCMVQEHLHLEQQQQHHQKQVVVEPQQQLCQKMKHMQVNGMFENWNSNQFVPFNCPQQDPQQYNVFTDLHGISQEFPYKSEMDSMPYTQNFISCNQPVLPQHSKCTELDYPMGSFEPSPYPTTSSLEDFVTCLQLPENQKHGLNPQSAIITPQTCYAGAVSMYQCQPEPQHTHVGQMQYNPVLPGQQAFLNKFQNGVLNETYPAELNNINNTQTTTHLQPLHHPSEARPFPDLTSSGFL
Excerpt: AHR binds to Dioxin Responsive Elements (DRE) upstream of genes that it activates. One measure of AHR activity is activation of a reporter gene, such as luciferase, downstream of one or multiple DRE elements. Luciferase activity will reflect activation and inhibition of AHR in the cells expressing his reporter. 20000 Human HepG2 liver carcinoma—AhR-Lucia reporter cells or Human HT29 colon adenocarcinoma—AhR reporter cells or other cell line with a DRE-luciferase reporter stably transfected were plated in Eagle's Minimal Essential Medium, 10% heat-inactivated FBS, 1× non-essential amino acids Pen-Strep (10,000 U/mL) and Normocin (100 ug/mL) in plates (96-well, 384-well or other plates) and incubated overnight at 37° C. in a CO2 incubator and treated with and without AhR antagonists at a log dilution starting at 100 uM.
After 1 hr that cells were plated an AHR activating ligand, such as TCDD, kynurenine, ITE (2-(1H-indole-3-ylcarbonyl)-4-thiazolecarboxylic methyl ester), VAF347, BNF (beta-naphthoflavone), FICZ (6-formylindolo(3,2-b) carbazole) or other AHR ligands at their specific EC50 concentration, were added to the cells with or without AHR antagonist.
Cells were incubated for 24 or 48 hours or another time point and then, supernatant was analyzed for determination of luciferase activity as a read-out of the AHR activation or inhibition. Luciferase was measured with the commercial kit QUANTI-Luc™ assay solution kit from Invivogen following the manufacturer's instructions.
The level of luciferase with only agonist ligand added was the maximum signal while the luciferase with […] was the minimum signal. IC50 values were determined as the concentration which inhibits half of the luciferase activity.

Row | IC50 | SMILES
1 | < 100 nM | C[C@@H](O)Cn1cnc2c(-c3cnn(C)c3)nc(-c3ccc(C(F)(F)F)cn3)cc2c1=O [Compound 141, (R)-3-(2-hydroxypropyl)-8-(1-methyl-1H-pyrazol-4-yl)-6-(5-(trifluoromethyl)pyridin-2-yl)pyrido[3,4-d]pyrimidin-4(3H)-one]
2 | < 100 nM | Cn1cc(-c2nc(-c3ccc(C(F)(F)F)cn3)cc3c(=O)n(C[C@@H](O)C(F)(F)F)cnc23)cn1 [Compound 146]
3 | < 100 nM | Cn1cc(-c2nc(-c3ccc(C(F)(F)F)cn3)cc3c(=O)n(C[C@H](O)C(F)(F)F)cnc23)cn1 [Compound 147]
4 | < 100 nM | Cn1cc(-c2nc(-c3ccc(C(F)(F)F)cn3)cc3c(=O)n([C@@H]4COC[C@@H]4O)cnc23)cn1 [Compound 149, 3-((3R,4R)-4-hydroxytetrahydrofuran-3-yl)-8-(1-methyl-1H-pyrazol-4-yl)-6-(5-(trifluoromethyl)pyridin-2-yl)pyrido[3,4-d]pyrimidin-4(3H)-one]
5 | < 100 nM | Cn1cc(-c2nc(-c3ccc(Cl)cc3)cc3c(=O)n([C@@H]4COC[C@H]4O)cnc23)cn1 [Compound 153, 6-(4-Chlorophenyl)-3-((3R,4S)-4-hydroxytetrahydrofuran-3-yl)-8-(1-methyl-1H-pyrazol-4-yl)pyrido[3,4-d]pyrimidin-4(3H)-one]
6 | > 500 nM | C[C@@H](C(=O)O)n1cnc2c(-c3cccnc3)nc(-c3ccc(C(F)(F)F)nc3)cc2c1=O [Compound 155, (S)-2-(4-oxo-8-(pyridin-3-yl)-6-(6-(trifluoromethyl)pyridin-3-yl)pyrido[3,4-d]pyrimidin-3(4H)-yl)propanoic acid]
7 | < 100 nM | C[C@@H](C(=O)N(C)C)n1cnc2c(-c3cccnc3)nc(-c3ccc(C(F)(F)F)nc3)cc2c1=O [Compound 157, (S)—N,N-dimethyl-2-(4-oxo-8-(pyridin-3-yl)-6-(6-(trifluoromethyl)pyridin-3-yl)pyrido[3,4-d]pyrimidin-3(4H)-yl)propenamide]
8 | 100 to 500 nM | C[C@@H](C(=O)N[C@@H]1COC[C@H]1O)n1cnc2c(-c3cccnc3)nc(-c3ccc(C(F)(F)F)nc3)cc2c1=O [Compound 158, (S)—N-((3R,4S)-4-hydroxytetrahydrofuran-3-yl)-2-(4-oxo-8-(pyridin-3-yl)-6-(6-(trifluoromethyl)pyridin-3-yl)pyrido[3,4-d]pyrimidin-3(4H)-yl)propenamide]
9 | < 100 nM | CC(C)(O)Cn1cnc2c(-c3cn[nH]c3)nc(-c3ccc(C(F)(F)F)cn3)cc2c1=O [Compound 159, 3-(2-hydroxy-2-methylpropyl)-8-(1H-pyrazol-4-yl)-6-(5-(trifluoromethyl)pyridin-2-yl)pyrido[3,4-d]pyrimidin-4(3H)-one]
10 | 100 to 500 nM | C[C@@H](CO)n1cnc2c(-n3cncn3)nc(-c3ccc(C(F)(F)F)nc3)cc2c1=O [Compound 164, (S)-3-(1-hydroxypropan-2-yl)-8-(1H-1,2,4-triazol-1-yl)-6-(6-(trifluoromethyl)pyridin-3-yl)pyrido[3,4-d]pyrimidin-4(3H)-one]
11 | < 100 nM | C[C@@H](CO)n1cnc2c(-n3cccn3)nc(-c3ccc(C(F)(F)F)nc3)cc2c1=O [Compound 165, (S)-3-(1-hydroxypropan-2-yl)-8-(1H-pyrazol-1-yl)-6-(6-(trifluoromethyl)pyridin-3-yl)pyrido[3,4-d]pyrimidin-4(3H)-one]
12 | < 100 nM | C[C@@H](CO)n1cnc2c(-n3cccn3)nc(-c3ccc(Cl)cc3)cc2c1=O [Compound 166, (S)-6-(4-chlorophenyl)-3-(1-hydroxypropan-2-yl)-8-(1H-pyrazol-1-yl)pyrido[3,4-d]pyrimidin-4(3H)-one]
13 | 100 to 500 nM | C[C@@H](CO)n1cnc2c(-n3cccn3)nc(-c3ccc(C(F)(F)F)cn3)cc2c1=O [Compound 167, (S)-3-(1-hydroxypropan-2-yl)-8-(1H-pyrazol-1-yl)-6-(5-(trifluoromethyl)pyridin-2-yl)pyrido[3,4-d]pyrimidin-4(3H)-one]
14 | < 100 nM | C[C@@H](CO)n1cnc2c(-c3cnn(C)c3)nc(-c3cnc(C(F)(F)F)s3)cc2c1=O [Compound 168, (S)-3-(1-hydroxypropan-2-yl)-8-(1-methyl-1H-pyrazol-4-yl)-6-(2-(trifluoromethyl)thiazol-5-yl)pyrido[3,4-d]pyrimidin-4(3H)-one]
15 | < 100 nM | O=c1c2cc(-c3cnc(C(F)(F)F)s3)nc(-c3cccnc3)c2ncn1[C@H]1COC[C@@H]1O [Compound 169, 3-((3S,4R)-4-hydroxytetrahydrofuran-3-yl)-8-(pyridin-3-yl)-6-(2-(trifluoromethyl)thiazol-5-yl)pyrido[3,4-d]pyrimidin-4(3H)-one]
16 | < 100 nM | Cn1cc(-c2nc(-c3cnc(C(F)(F)F)s3)cc3c(=O)n(CC(C)(C)O)cnc23)cn1 [Compound 170, 3-(2-hydroxy-2-methylpropyl)-8-(1-methyl-1H-pyrazol-4-yl)-6-(2-(trifluoromethyl)thiazol-5-yl)pyrido[3,4-d]pyrimidin-4(3H)-one]
17 | < 100 nM | Cn1cc(-c2nc(-c3cnc(C(F)(F)F)s3)cc3c(=O)n([C@H]4COC[C@@H]4O)cnc23)cn1 [Compound 171, 3-((3S,4R)-4-hydroxytetrahydrofuran-3-yl)-8-(1-methyl-1H-pyrazol-4-yl)-6-(2-(trifluoromethyl)thiazol-5-yl)pyrido[3,4-d]pyrimidin-4(3H)-one]
18 | < 100 nM | Cn1cc(-c2nc(-c3cnc(C(F)(F)F)s3)cc3c(=O)n([C@@H]4COC[C@H]4O)cnc23)cn1 [Compound 172, 3-((3R,4S)-4-hydroxytetrahydrofuran-3-yl)-8-(1-methyl-1H-pyrazol-4-yl)-6-(2-(trifluoromethyl)thiazol-5-yl)pyrido[3,4-d]pyrimidin-4(3H)-one]
19 | 100 to 500 nM | O=c1c2cc(-c3cnc(C(F)(F)F)s3)nc(-c3cccnc3)c2ncn1[C@@H]1COC[C@H]1O [Compound 173, 3-((3R,4S)-4-hydroxytetrahydrofuran-3-yl)-8-(pyridin-3-yl)-6-(2-(trifluoromethyl)thiazol-5-yl)pyrido[3,4-d]pyrimidin-4(3H)-one]
20 | < 100 nM | CCN(CC)c1nc(-c2ccc(C(F)(F)F)nc2)cc2c(=O)n([C@@H](C)CO)cnc12 [Compound 174, (S)-8-(diethylamino)-3-(1-hydroxypropan-2-yl)-6-(6-(trifluoromethyl)pyridin-3-yl)pyrido[3,4-d]pyrimidin-4(3H)-one]
21 | < 100 nM | C[C@@H](CO)n1cnc2c(N3CCCCC3)nc(-c3ccc(C(F)(F)F)nc3)cc2c1=O [Compound 175, (S)-3-(1-hydroxypropan-2-yl)-8-(piperidin-1-yl)-6-(6-(trifluoromethyl)pyridin-3-yl)pyrido[3,4-d]pyrimidin-4(3H)-one]
22 | < 100 nM | C[C@@H](CO)n1cnc2c(N3CCCC3)nc(-c3ccc(C(F)(F)F)nc3)cc2c1=O [Compound 176, (S)-3-(1-hydroxypropan-2-yl)-8-(pyrrolidin-1-yl)-6-(6-(trifluoromethyl)pyridin-3-yl)pyrido[3,4-d]pyrimidin-4(3H)-one]
23 | < 100 nM | C[C@@H](CO)n1cnc2c(N3CCOCC3)nc(-c3ccc(C(F)(F)F)nc3)cc2c1=O [Compound 178, (S)-3-(1-hydroxypropan-2-yl)-8-morpholino-6-(6-(trifluoromethyl)pyridin-3-yl)pyrido[3,4-d]pyrimidin-4(3H)-one]
24 | < 100 nM | CC(C)(O)Cn1cnc2c(N3CCCCC3)nc(-c3ccc(C(F)(F)F)nc3)cc2c1=O [Compound 179, 3-(2-hydroxy-2-methylpropyl)-8-(piperidin-1-yl)-6-(6-(trifluoromethyl)pyridin-3-yl)pyrido[3,4-d]pyrimidin-4(3H)-one]
25 | 100 to 500 nM | C[C@@H](CO)n1cnc2c(-c3ccccn3)nc(-c3ccc(C(F)(F)F)nc3)cc2c1=O [Compound 180, (S)-3-(1-hydroxypropan-2-yl)-8-(pyridin-2-yl)-6-(6-(trifluoromethyl)pyridin-3-yl)pyrido[3,4-d]pyrimidin-4(3H)-one]
